Test results as given in PMC4970648, “Studies on 16α-Hydroxylation of Steroid Molecules and Regioselective Binding Mode in Homology-Modeled Cytochrome P450-2C11” (International Journal of Medicinal Chemistry, 2010).

These compounds were tested against [3H]PROG 16α-hydroxylating activity by male rat liver microsomes (CYP2C11) (Rattus norvegicus, UniProt P08683) (assay: Inhibition of [3H]progesterone 16α-hydroxylation by adult male rat liver microsomes). Settings: 40% inhibition not reached at 10 μM of unlabeled steroid; male rat liver microsomes.
Chain of [3H]PROG 16α-hydroxylating activity by male rat liver microsomes (CYP2C11) (P08683 whole entry): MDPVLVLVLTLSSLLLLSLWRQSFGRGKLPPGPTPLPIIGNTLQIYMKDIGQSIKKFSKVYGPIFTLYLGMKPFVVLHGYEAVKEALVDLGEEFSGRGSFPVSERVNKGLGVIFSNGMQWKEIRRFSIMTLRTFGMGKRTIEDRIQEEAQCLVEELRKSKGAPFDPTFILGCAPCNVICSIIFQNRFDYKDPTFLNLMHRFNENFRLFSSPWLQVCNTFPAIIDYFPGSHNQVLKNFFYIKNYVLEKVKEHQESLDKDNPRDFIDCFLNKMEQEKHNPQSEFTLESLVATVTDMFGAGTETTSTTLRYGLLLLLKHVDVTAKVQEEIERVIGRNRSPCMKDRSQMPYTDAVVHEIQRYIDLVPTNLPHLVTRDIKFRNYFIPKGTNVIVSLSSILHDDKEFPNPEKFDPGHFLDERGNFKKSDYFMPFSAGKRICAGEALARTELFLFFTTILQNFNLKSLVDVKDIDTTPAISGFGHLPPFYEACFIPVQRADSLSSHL
Description: Approximately 95-day-old male Wistar rats, castrated on the 70th day after birth, were used. The liver microsomes were prepared as previously described. The experiments were performed according to instrumental guidelines for the care and use of laboratory animals.
The metabolism by rat liver microsomes were examined, according to our previously described procedure. Briefly, the microsomal suspension (400–600 μg of protein/2.2 mL, total volume of the reaction mixture) was preincubated with [3H]PROG (20 nM) under the absence or presence of an unlabeled steroid (0.01–10 μM) at 36°C for 30 min. […] After the incubation, two identical samples were mixed and extracted with toluene. The toluene-extractable [3H]PROG metabolites (more than 90%) were isolated by various paper chromatographic systems and then identified by recrysallization method. Other miscellaneous procedures are described in our previous papers.
For `CC(C)CCC[C@@H](C)[C@H]1CC[C@H]2[C@@H]3CC=C4C[C@@H](O)CC[C@]4(C)[C@H]3CC[C@]12C` [compound 26, Cholesterol], the “[3H]PROG16α-hydroxylation (IC40), given as bound in μM” value was >10 µM. For `CC[C@H]1CC[C@H]2[C@@H]3CC=C4C[C@@H](O)CC[C@]4(C)[C@H]3CC[C@]12C` [compound 25, 5-Pregnen-3β-ol], the “[3H]PROG16α-hydroxylation (IC40), given as bound in μM” value was >10 µM. In the case of `CC(=O)[C@H]1CC[C@H]2[C@@H]3CCC4=CC(=O)CC[C@@H]4[C@H]3CC[C@]12C` [compound 12, 19-Norprogesterone], the “[3H]PROG16α-hydroxylation (IC40), given as bound in μM” value is reported as >10 µM. In the case of `C[C@]12CC[C@H]3[C@@H](CCC4=CC(=O)CC[C@@]43C)[C@@H]1CC[C@@H]2C(=O)O` [compound 39, 4-Androsten-3-one; 17-β-carboxylaic acid], the “[3H]PROG16α-hydroxylation (IC40), given as bound in μM” value is reported as >10 μM^e. `CC(=O)[C@H]1CC[C@H]2[C@@H]3CCC4=CC(=O)CC[C@]4(C)[C@H]3[C@H](O)C[C@]12C` [compound 5, 11α-Hydroxyprogesterone] was tested, and the “[3H]PROG16α-hydroxylation (IC40), given as bound in μM” value was >10 µM. With `C[C@]12CC[C@@H](O)C[C@@H]1CC[C@@H]1[C@@H]2CC[C@]2(C)[C@@H](OS(=O)(=O)O)CC[C@@H]12` [compound 64, 5α-Androstan-3α,17β-diol-17-sulfate] the “[3H]PROG16α-hydroxylation (IC40), given as bound in μM” value was >10 µM.

Same assay, conditions: molar concentration of unlabeled steroid causing 40% inhibition; [3H]PROG 20 nM; unlabeled steroid 0.01–10 μM; male rat liver microsomes
With `C[C@]12CC[C@@H](O)C[C@H]1CC[C@@H]1[C@@H]2CC[C@]2(C)[C@@H](C(=O)O)CC[C@@H]12` [compound 67, 5β-Androstan-3α-ol-17β-carboxylic acid] the “[3H]PROG16α-hydroxylation (IC40)” value was 0.36 µM. For `C[C@]12CC[C@H]3[C@@H](CC=C4C[C@@H](O)CC[C@@]43C)[C@@H]1CC[C@@H]2C(=O)CO` [compound 22, 21-Hydroxypregnenolone], the “[3H]PROG16α-hydroxylation (IC40)” value was 0.462 µM. With `COC(=O)[C@H]1CC[C@H]2[C@@H]3CCC4=CC(=O)CC[C@]4(C)[C@H]3CC[C@]12C` [compound 40, 4-Androsten-3-one;17-β-carboxylaic acid methyl ester] the “[3H]PROG16α-hydroxylation (IC40)” value was 0.801 µM. With `C[C@]12CC[C@H](O)CC1=CC[C@@H]1[C@@H]2CC[C@]2(C)C(=O)CC[C@@H]12` [compound 43, Dehydroepiandrosterone] the “[3H]PROG16α-hydroxylation (IC40)” value was 0.68 µM. For `C[C@]12CC[C@@H](O)C[C@H]1CC[C@@H]1[C@@H]2CC[C@]2(C)[C@@H](O)CC[C@@H]12` [compound 66, 5β-Androstan-3 α,17 β -diol], the “[3H]PROG16α-hydroxylation (IC40)” value was 0.069 µM. With `C[C@]12CC[C@@H](O)C[C@@H]1CC[C@@H]1[C@@H]2CC[C@]2(C)[C@@H](O)CC[C@@H]12` [compound 62, 5α-Androstan-3α,17β-diol] the “[3H]PROG16α-hydroxylation (IC40)” value was 0.125 µM. `CC(=O)[C@H]1CC[C@H]2[C@@H]3CC[C@H]4C[C@H](O)CC[C@]4(C)[C@H]3[C@@H](O)C[C@]12C` [compound 35, 3α,11β-Dihydroxy-5α-pregnan-20-one] was tested, and the “[3H]PROG16α-hydroxylation (IC40)” value was 0.15 µM. With `CC(=O)O[C@@H]1CC[C@@]2(C)[C@@H](CC[C@@H]3[C@@H]2CC[C@]2(C)[C@@H](C(C)=O)CC[C@@H]32)C1` [compound 30, 3α-Acetoxy-5 α -pregnan-20-one] the “[3H]PROG16α-hydroxylation (IC40)” value was 0.41 µM. For `CC(=O)[C@H]1CC[C@H]2[C@@H]3CC=C4C[C@@H](O)CC[C@]4(C)[C@H]3CC[C@]12C` [compound 17, Pregnenolone], the “[3H]PROG16α-hydroxylation (IC40)” value was 0.142 µM. In the case of `CC(=O)C1CCC2C3CC=C4CC(OS(=O)(=O)O)CCC4(C)C3CCC12C` (stereo not shown) [compound 19, Pregnenolone-3-sulfate], the “[3H]PROG16α-hydroxylation (IC40)” value is reported as 0.195 µM.
